This is an account of results in PMC7570983, “Synthesis of Novel 2-(Isopropylamino)thiazol-4(5H)-one Derivatives and Their Inhibitory Activity of 11β-HSD1 and 11β-HSD2 in Aspect of Carcinogenesis Prevention” (Molecules, 2020).

In this assay the target is T1, 11β-HSD2 (Homo sapiens, UniProt P80365).
T1 construct: gene HSD11B2
T1 sequence (P80365 1-405): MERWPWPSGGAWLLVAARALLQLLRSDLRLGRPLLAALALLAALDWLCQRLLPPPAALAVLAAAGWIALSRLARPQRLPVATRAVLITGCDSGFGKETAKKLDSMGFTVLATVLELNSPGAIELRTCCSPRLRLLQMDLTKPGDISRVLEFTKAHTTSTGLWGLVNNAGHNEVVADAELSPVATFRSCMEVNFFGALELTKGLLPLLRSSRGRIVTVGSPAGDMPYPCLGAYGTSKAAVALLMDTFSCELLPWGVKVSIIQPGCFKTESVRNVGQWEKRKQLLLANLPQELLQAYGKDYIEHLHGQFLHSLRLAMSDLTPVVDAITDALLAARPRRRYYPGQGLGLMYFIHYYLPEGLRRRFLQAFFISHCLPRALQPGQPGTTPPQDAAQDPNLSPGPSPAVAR
The assay can be described thus: % inhibition at […], human kidney microsomes, cortisol ELISA. The assay is classed as cell-based. The settings on record: read-out: % of 11β-HSD2 Inhibition 10 μM/IC50 [μM] ^a.

With `CCC1SC(NC(C)C)=NC1=O` (stereo not shown) [3b, 5-Ethyl-2-(isopropylamino)thiazol-4(5H)-one], the inhibition at 10 µM is 47.1 ± 2.51%.
